The values that follow come from US20160108049A1 (TAKEDA Gmbh, priority 2011, published 2016).

The structures appear in SMILES notation. Bounds are passed on as bounds.

One test concerns the target T1, human PDE5 (Homo sapiens, UniProt O76074).
T1 construct: from tissue; host or cells: human platelets from fresh donor blood (platelet lysate)
Briefly: Inhibition of PDE5 activity (platelet lysate, SPA assay). The class given is biochemical. The note with it: 0.5 μM cGMP, read-out: PDE5 Inhibitory values measured as -logIC50 (converted). Put shortly:
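Human platelet lysate (10,000 g supernatant) served as PDE5 source, with 1 μM motapizone and 10 nM PDE2 inhibitor added, in Tris pH 7.4, 5 mM Mg2+, BSA. Substrate 0.5 μM [3H]cGMP, 10–20% conversion; 5 min preincubation then 15 min at 37 °C, stopped by SPA beads with IBMX. IC50 by non-linear regression.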

In the next test the target is T2, PDE4B1 (Homo sapiens, UniProt Q07343).
T2 construct: made in house; host or cells: SF21 insect cells (baculovirus; virus made in SF9 cells, pCR-Bac vector)
Briefly: Inhibition of PDE4 activity (PDE4B1, SPA assay). The class given is biochemical. The note with it: recombinant PDE4B1, 0.5 μM cAMP; read-out: PDE4B1 Inhibitory values measured as -logIC50 (converted). The procedure, abridged:
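Baculovirus-expressed enzyme from SF21 cell 1000×g supernatant; substrate 0.5 μM [3H]cAMP in 20 mM Tris pH 7.4, 5 mM Mg2+, 0.1 mg/ml BSA, 10-20% conversion. 5 min preincubation at 37 °C, 15 min reaction, stopped by SPA beads with IBMX; IC50 by non-linear regression.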

T2 sequence (Q07343 whole entry): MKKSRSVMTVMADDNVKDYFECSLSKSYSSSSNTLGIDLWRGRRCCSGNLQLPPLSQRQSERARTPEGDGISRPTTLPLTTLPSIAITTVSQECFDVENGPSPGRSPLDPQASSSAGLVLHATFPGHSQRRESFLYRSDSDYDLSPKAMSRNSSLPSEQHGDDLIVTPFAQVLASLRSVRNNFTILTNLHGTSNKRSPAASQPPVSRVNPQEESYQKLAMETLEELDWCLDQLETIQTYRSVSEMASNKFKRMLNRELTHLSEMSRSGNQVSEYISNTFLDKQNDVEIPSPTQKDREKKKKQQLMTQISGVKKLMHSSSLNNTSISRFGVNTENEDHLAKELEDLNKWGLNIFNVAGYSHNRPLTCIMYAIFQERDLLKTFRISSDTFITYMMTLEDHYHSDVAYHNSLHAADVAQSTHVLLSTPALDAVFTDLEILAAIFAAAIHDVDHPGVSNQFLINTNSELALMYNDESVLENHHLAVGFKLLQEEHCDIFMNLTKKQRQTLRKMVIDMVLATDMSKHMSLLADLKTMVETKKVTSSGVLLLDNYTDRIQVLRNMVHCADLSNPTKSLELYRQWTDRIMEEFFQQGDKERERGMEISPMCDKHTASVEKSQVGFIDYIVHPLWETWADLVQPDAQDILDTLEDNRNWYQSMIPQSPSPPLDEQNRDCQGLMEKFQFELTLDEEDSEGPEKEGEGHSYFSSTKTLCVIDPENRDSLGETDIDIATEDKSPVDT

In the case of `COc1ccc(C2=NN(C3CCN(C(=O)[C@@H](Cc4ccccc4)NC(=O)c4c[nH]c5c(-c6c(OCC7CC7)ccc7c6OCO7)ncnc45)CC3)C(=O)[C@@H]3CCC[C@H]23)cc1OC` [Example 55, 4-[5-(cyclopropylmethoxy)-1,3-benzodioxol-4-yl]-N-[(2R)-1-{4-[(4aS,7aR)-4-(3,4-dimethoxyphenyl)-1-oxo-1,4a,5,6,7,7a-hexahydro-2H-cyclopenta[d]pyridazin-2-yl]piperidin-1-yl}-1-oxo-3-phenylpropan-2-yl]-5H-pyrrolo[3,2-d]pyrimidine-7-carboxamide], the IC50 at human PDE5 and on PDE4B1 was 1 to 10 nM in each case.
On to `COc1ccc(C2=NN(C3CCN(C(=O)CNC(=O)c4c[nH]c5c(-c6c(OCC7CC7)ccc7c6OCO7)ncnc45)CC3)C(=O)[C@@H]3CCCC[C@H]23)cc1OC` [Example 59, 4-[5-(cyclopropylmethoxy)-1,3-benzodioxol-4-yl]-N-(2-{4-[(4aS,8aR)-4-(3,4-dimethoxyphenyl)-1-oxo-4a,5,6,7,8,8a-hexahydrophthalazin-2(1H)-yl]piperidin-1-yl}-2-oxoethyl)-5H-pyrrolo[3,2-d]pyrimidine-7-carboxamide], for which the IC50 at human PDE5 is 1 to 10 nM; on PDE4B1 it was less than 1 nM.
As to `COc1ccc(C2=NN(C3CCN(C(=O)[C@H](CO)NC(=O)c4c[nH]c5c(-c6c(OCC7CC7)ccc7c6OCO7)ncnc45)CC3)C(=O)[C@@H]3CCCC[C@H]23)cc1OC` [Example 60, 4-[5-(cyclopropylmethoxy)-1,3-benzodioxol-4-yl]-N-[(2S)-1-{4-[(4aS,8aR)-4-(3,4-dimethoxyphenyl)-1-oxo-4a,5,6,7,8,8a-hexahydrophthalazin-2(1H)-yl]piperidin-1-yl}-3-hydroxy-1-oxopropan-2-yl]-5H-pyrrolo[3,2-d]pyrimidine-7-carboxamide], the IC50 at human PDE5 was 1 to 10 nM; on PDE4B1, less than 1 nM.
As for `COc1ccc(C2=NN(C3CCN(C(=O)[C@H](C)NC(=O)c4c[nH]c5c(-c6c(OCC7CC7)ccc7c6OCO7)ncnc45)CC3)C(=O)[C@@H]3CCCC[C@H]23)cc1OC` [Example 61, 4-[5-(cyclopropylmethoxy)-1,3-benzodioxol-4-yl]-N-[(2S)-1-{4-[(4aS,8aR)-4-(3,4-dimethoxyphenyl)-1-oxo-4a,5,6,7,8,8a-hexahydrophthalazin-2(1H)-yl]piperidin-1-yl}-1-oxopropan-2-yl]-5H-pyrrolo[3,2-d]pyrimidine-7-carboxamide], the IC50 on human PDE5 was 1 to 10 nM; on PDE4B1, less than 1 nM.
`COc1ccc(C2=NN(C3CCN(C(=O)[C@@H](C)NC(=O)c4c[nH]c5c(-c6c(OCC7CC7)ccc7c6OCO7)ncnc45)CC3)C(=O)[C@@H]3CCCC[C@H]23)cc1OC` [Example 62, 4-[5-(cyclopropylmethoxy)-1,3-benzodioxol-4-yl]-N-[(2R)-1-{4-[(4aS,8aR)-4-(3,4-dimethoxyphenyl)-1-oxo-4a,5,6,7,8,8a-hexahydrophthalazin-2(1H)-yl]piperidin-1-yl}-1-oxopropan-2-yl]-5H-pyrrolo[3,2-d]pyrimidine-7-carboxamide]: the IC50 is 1 to 10 nM on human PDE5 and less than 1 nM on PDE4B1.
For `COc1ccc(C2=NN(C3CCN(C(=O)[C@@H](NC(=O)c4c[nH]c5c(-c6c(OCC7CC7)ccc7c6OCO7)ncnc45)[C@@H](C)O)CC3)C(=O)[C@@H]3CCCC[C@H]23)cc1OC` [Example 63, 4-[5-(cyclopropylmethoxy)-1,3-benzodioxol-4-yl]-N-[(2S,3R)-1-{4-[(4aS,8aR)-4-(3,4-dimethoxyphenyl)-1-oxo-4a,5,6,7,8,8a-hexahydrophthalazin-2(1H)-yl]piperidin-1-yl}-3-hydroxy-1-oxobutan-2-yl]-5H-pyrrolo[3,2-d]pyrimidine-7-carboxamide], the IC50 at human PDE5 and on PDE4B1 was less than 1 nM throughout.
For the compound `CC[C@H](NC(=O)c1c(C)[nH]c2c(-c3c(OCC4CC4)ccc4c3OCO4)ncnc12)C(=O)N1CCC(N2N=C(c3ccc(OC)c(OC)c3)[C@H]3CCCC[C@H]3C2=O)CC1` [Example 64, 4-[5-(cyclopropylmethoxy)-1,3-benzodioxol-4-yl]-N-[(2S)-1-{4-[(4aS,8aR)-4-(3,4-dimethoxyphenyl)-1-oxo-4a,5,6,7,8,8a-hexahydrophthalazin-2(1H)-yl]piperidin-1-yl}-1-oxobutan-2-yl]-6-methyl-5H-pyrrolo[3,2-d]pyrimidine-7-carboxamide], the IC50 at human PDE5 and on PDE4B1 was less than 1 nM each time.
On to `COc1ccc(C2=NN(C3CCN(C(=O)[C@@H](CCc4ccccc4)NC(=O)c4c[nH]c5c(-c6c(OCC7CC7)ccc7c6OCO7)ncnc45)CC3)C(=O)[C@@H]3CCCC[C@H]23)cc1OC` [Example 65, 4-[5-(cyclopropylmethoxy)-1,3-benzodioxol-4-yl]-N-[(2R)-1-{4-[(4aS,8aR)-4-(3,4-dimethoxyphenyl)-1-oxo-4a,5,6,7,8,8a-hexahydrophthalazin-2(1H)-yl]piperidin-1-yl}-1-oxo-4-phenylbutan-2-yl]-5H-pyrrolo[3,2-d]pyrimidine-7-carboxamide], for which the IC50 on human PDE5 and at PDE4B1 was less than 1 nM each time.
`COc1ccc(C2=NN(C3CCN(C(=O)[C@@H](Cc4ccccc4)NC(=O)c4c(C)[nH]c5c(-c6c(OCC7CC7)ccc7c6OCO7)ncnc45)CC3)C(=O)C(C)(C)C2)cc1OC` [Example 66, 4-[5-(cyclopropylmethoxy)-1,3-benzodioxol-4-yl]-N-[(2R)-1-{4-[3-(3,4-dimethoxyphenyl)-5,5-dimethyl-6-oxo-5,6-dihydropyridazin-1(4H)-yl]piperidin-1-yl}-1-oxo-3-phenylpropan-2-yl]-6-methyl-5H-pyrrolo[3,2-d]pyrimidine-7-carboxamide]: the IC50 at human PDE5 and on PDE4B1 was less than 1 nM in each case.
In the case of `COc1ccc(C2=NN(C3CCN(C(=O)[C@@H](Cc4ccccc4)NC(=O)c4c[nH]c5c(-c6c(OCC7CC7)ccc7c6OCO7)ncnc45)CC3)C(=O)C(C)(C)C2)cc1OC` [Example 67, 4-[5-(cyclopropylmethoxy)-1,3-benzodioxol-4-yl]-N-[(2R)-1-{4-[3-(3,4-dimethoxyphenyl)-5,5-dimethyl-6-oxo-5,6-dihydropyridazin-1(4H)-yl]piperidin-1-yl}-1-oxo-3-phenylpropan-2-yl]-5H-pyrrolo[3,2-d]pyrimidine-7-carboxamide], the results for the IC50 on human PDE5 and at PDE4B1 were 1 to 10 nM and less than 1 nM, respectively.
For `COc1cc(OCC2CC2)c(-c2ncnc3c(C(=O)N[C@H](Cc4ccccc4)C(=O)N4CCC(N5N=C(c6ccc(OC)c(OC)c6)CC(C)(C)C5=O)CC4)c[nH]c23)cc1F` [Example 68, 4-[2-(cyclopropylmethoxy)-5-fluoro-4-methoxyphenyl]-N-[(2R)-1-{4-[3-(3,4-dimethoxyphenyl)-5,5-dimethyl-6-oxo-5,6-dihydropyridazin-1(4H)-yl]piperidin-1-yl}-1-oxo-3-phenylpropan-2-yl]-5H-pyrrolo[3,2-d]pyrimidine-7-carboxamide], in that order: 1 to 10 nM and 1 to 10 nM.
For `COc1cc(OCC2CC2)c(-c2ncnc3c(C(=O)N[C@H](Cc4ccccc4)C(=O)N4CCC(N5N=C(c6ccc(OC)c(OC)c6)CC(C)(C)C5=O)CC4)c(C)[nH]c23)cc1F` [Example 69, 4-[2-(cyclopropylmethoxy)-5-fluoro-4-methoxyphenyl]-N-[(2R)-1-{4-[3-(3,4-dimethoxyphenyl)-5,5-dimethyl-6-oxo-5,6-dihydropyridazin-1(4H)-yl]piperidin-1-yl}-1-oxo-3-phenylpropan-2-yl]-6-methyl-5H-pyrrolo[3,2-d]pyrimidine-7-carboxamide], the IC50 on human PDE5 and at PDE4B1 was 1 to 10 nM throughout.
On to `CC[C@H](C)[C@H](NC(=O)c1c[nH]c2c(-c3c(OCC4CC4)ccc4c3OCO4)ncnc12)C(=O)N1CCC(N2N=C(c3ccc(OC)c(OC)c3)[C@H]3CCCC[C@H]3C2=O)CC1` [Example 71, 4-[5-(cyclopropylmethoxy)-1,3-benzodioxol-4-yl]-N-[(2S,3S)-1-{4-[(4aS,8aR)-4-(3,4-dimethoxyphenyl)-1-oxo-4a,5,6,7,8,8a-hexahydrophthalazin-2(1H)-yl]piperidin-1-yl}-3-methyl-1-oxopentan-2-yl]-5H-pyrrolo[3,2-d]pyrimidine-7-carboxamide], for which the results for the IC50 at human PDE5 and on PDE4B1 were 1 to 10 nM and less than 1 nM, respectively.
As to `COc1ccc(C2=NN(C3CCN(C(=O)[C@H](NC(=O)c4c[nH]c5c(-c6c(OCC7CC7)ccc7c6OCO7)ncnc45)C4CCCCC4)CC3)C(=O)[C@@H]3CCCC[C@H]23)cc1OC` [Example 72, N-[(1R)-1-cyclohexyl-2-{4-[(4aS,8aR)-4-(3,4-dimethoxyphenyl)-1-oxo-4a,5,6,7,8,8a-hexahydrophthalazin-2(1H)-yl]piperidin-1-yl}-2-oxoethyl]-4-[5-(cyclopropylmethoxy)-1,3-benzodioxol-4-yl]-5H-pyrrolo[3,2-d]pyrimidine-7-carboxamide], the results for the IC50 at human PDE5 and on PDE4B1 were 1 to 10 nM and less than 1 nM, respectively.
On the same counts, the results for `COc1ccc(C2=NN(C3CCN(C(=O)[C@@H](NC(=O)c4c[nH]c5c(-c6c(OCC7CC7)ccc7c6OCO7)ncnc45)C4CCCCC4)CC3)C(=O)[C@@H]3CCCC[C@H]23)cc1OC` [Example 73, N-[(1S)-1-cyclohexyl-2-{4-[(4aS,8aR)-4-(3,4-dimethoxyphenyl)-1-oxo-4a,5,6,7,8,8a-hexahydrophthalazin-2(1H)-yl]piperidin-1-yl}-2-oxoethyl]-4-[5-(cyclopropylmethoxy)-1,3-benzodioxol-4-yl]-5H-pyrrolo[3,2-d]pyrimidine-7-carboxamide] are 1 to 10 nM and 1 to 10 nM.
